According to patent US10947196B2, “Beta adrenergic agonist and methods of using the same” (CURASEN THERAPEUTICS, INC., priority 2019, dated 2021):
Read-outs that look alike come from different tables or passages of the source.

Key:
Format in all cases: cell-based
[1] = molecular target: β1-adrenergic receptor (Homo sapiens (Human), UniProt P08588); assay: cAMP Gs dynamic HTRF assay, β1 expressing CHO cells; settings: B1-AR
Method in brief: (§1)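 Intracellular cAMP quantified by Eu-donor/d2-acceptor HTRF after 30 min compound exposure at 37° C in stimulation buffer with IBMX. Concentrations ran 10 μM top, 5-fold steps, 10 points. Cell lines: 1321N1 astrocytoma and CHO expressing β1 or β2; EC50 via four-parameter fit, relative efficacy against isoproterenol.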

[2] = molecular target: β2 adrenergic receptors in human astrocytoma cells (1321N1) (Homo sapiens (Human), UniProt P07550); assay: cAMP HTRF assay in human astrocytoma cells (1321N1)
Protocol: cAMP homogeneous time-resolved fluorescence (HTRF). Compound efficacy was determined using the cAMP Gs dynamic HTRF assay (Cisbio, catalog #62AM4PEC) largely following the manufacturer's instructions, also detailed below.
Compound preparation. […] Standard serial dilution curves were 10-point, 5-fold dilutions starting from a highest concentration of 10 μM. […] Assay plates were centrifuged at 500×g for 10 seconds. Compounds and IBMX were prepared at 2× final dose to compensate for addition of cells.
Cell preparation. 1× stimulation buffer, washing PBS (Dulbecco's phosphate-buffered saline, −Mg −Ca; Caisson Labs, catalog #PBL01), assay PBS (Dulbecco's phosphate-buffered saline, +Mg, +Ca; Caisson Labs, catalog #PBL02) and Versene (0.02% EDTA disodium salt solution in PBS without calcium or magnesium; Caisson Labs, catalog #EDL01) were pre-warmed to 37° C. Cells expressing beta-adrenergic receptor were washed in washing PBS to remove growth medium and then released from the surface by incubating with Versene for 5-10 minutes at 37° C. Cells were harvested using assay PBS, counted manually by hemocytometer or by an automated cell counter, pelleted by centrifugation (200×g, 5 minutes) and resuspended in 37° C. 1× stimulation buffer to a final density of 1.5×10^6 cells/mL. 5 μL of the suspended cell solution (7500 cell total) were added to all wells of the 384 well assay plate, the assay plate was covered with an Axygen® plate seal (Corning PCR-SP) and incubated in a humidified 37° C. environment supplemented with 5% CO2 for 30 minutes.
HTRF reagent addition, reading and data analysis. After 30 minutes of cell stimulation with test compound, the assay plates were centrifuged at 500×g for 10 seconds, and incubation was stopped with the addition of 5 μL cAMP-D2 acceptor, diluted 1:21 in detection and lysis buffer 2 (Cisbio 62CL2FDF) was added to all cells. Subsequently, 5 μL Anti-cAMP-Eu Donor, diluted 1:21 in detection and lysis buffer 2, was added to cells. Plates were sealed and reactions gently ‘vortexed’ at 900 rpm on a Heidolph Titramax 1000 for at least 30 minutes at room temperature. Plates were centrifuged again at 500×g for 10 seconds, and HTRF was measured using a Tecan Spark plate reader at 50 flashes per well. […] Potency estimates (EC50) were derived from the four-parameter nonlinear regression of the concentration-effect curve and an estimate of relative efficacy was determined by comparing the magnitude of the test compound HTRF signal window (min−max dose) with the signal window of the full agonist control, isoproterenol.

[3] = molecular target: B3-AR (Homo sapiens (Human), UniProt P13945); assay: cAMP potency assay, B3-AR expressing CHO-K1 cells; settings: read-out: Average pEC50 [Receptor subtype: B3-AR, Cell type: CHO-K1] (converted)
[4] = molecular target: β2 adrenergic receptor (Homo sapiens (Human), UniProt P07550); assay: cAMP Gs dynamic HTRF assay, β2 expressing CHO cells; settings: B2-AR
Method in brief: as §1

[5] = CHO-K1 (HitHunter), read-out: Average pEC50 [Receptor subtype: B1-AR, Cell type: CHO-K1 (HitHunter)] (converted)
[6] = CHO-K cells, read-out: Average EC50 [Receptor subtype: B1-AR, Cell type: CHO-K]
[7] = Endogenous receptor, 1321N1 cells, read-out: Average pEC50 [Receptor subtype: Endogenous, Cell type: 1321N1] (converted)
[8] = CHO-K1 (HitHunter), read-out: Average pEC50 [Receptor subtype: B2-AR, Cell type: CHO-K1 (HitHunter)] (converted)
[9] = CHO-K cells, read-out: Average EC50 [Receptor subtype: B2-AR, Cell type: CHO-K]

Sequence of β1-adrenergic receptor (P08588 whole entry, species assumed): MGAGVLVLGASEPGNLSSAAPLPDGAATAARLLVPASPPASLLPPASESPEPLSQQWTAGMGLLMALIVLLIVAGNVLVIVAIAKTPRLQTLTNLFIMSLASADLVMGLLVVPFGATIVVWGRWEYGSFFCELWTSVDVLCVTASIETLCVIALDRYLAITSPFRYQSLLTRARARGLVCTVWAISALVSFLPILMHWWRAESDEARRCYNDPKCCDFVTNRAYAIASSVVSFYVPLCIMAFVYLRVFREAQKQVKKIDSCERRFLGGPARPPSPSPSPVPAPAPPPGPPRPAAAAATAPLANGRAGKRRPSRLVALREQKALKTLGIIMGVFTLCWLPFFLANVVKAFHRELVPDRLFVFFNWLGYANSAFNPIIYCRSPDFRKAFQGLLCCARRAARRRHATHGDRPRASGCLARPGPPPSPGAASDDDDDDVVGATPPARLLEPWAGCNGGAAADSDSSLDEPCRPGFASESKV
Sequence of β2 adrenergic receptor (P07550 whole entry, species assumed): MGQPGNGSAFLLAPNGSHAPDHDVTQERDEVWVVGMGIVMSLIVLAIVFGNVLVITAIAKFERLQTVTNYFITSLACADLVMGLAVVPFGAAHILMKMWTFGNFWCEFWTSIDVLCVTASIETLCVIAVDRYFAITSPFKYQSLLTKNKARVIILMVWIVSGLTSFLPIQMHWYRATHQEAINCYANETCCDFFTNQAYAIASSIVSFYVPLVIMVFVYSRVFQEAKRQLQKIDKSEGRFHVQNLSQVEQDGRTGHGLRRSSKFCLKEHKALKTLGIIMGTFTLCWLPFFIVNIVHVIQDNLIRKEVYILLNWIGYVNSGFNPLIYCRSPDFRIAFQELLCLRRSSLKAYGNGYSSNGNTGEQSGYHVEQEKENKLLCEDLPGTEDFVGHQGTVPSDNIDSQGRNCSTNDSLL
Sequence of β2 adrenergic receptors in human astrocytoma cells (1321N1) (P07550 whole entry): as the sequence (P07550 whole entry, species assumed) above
Sequence of B3-AR (P13945 whole entry, species assumed): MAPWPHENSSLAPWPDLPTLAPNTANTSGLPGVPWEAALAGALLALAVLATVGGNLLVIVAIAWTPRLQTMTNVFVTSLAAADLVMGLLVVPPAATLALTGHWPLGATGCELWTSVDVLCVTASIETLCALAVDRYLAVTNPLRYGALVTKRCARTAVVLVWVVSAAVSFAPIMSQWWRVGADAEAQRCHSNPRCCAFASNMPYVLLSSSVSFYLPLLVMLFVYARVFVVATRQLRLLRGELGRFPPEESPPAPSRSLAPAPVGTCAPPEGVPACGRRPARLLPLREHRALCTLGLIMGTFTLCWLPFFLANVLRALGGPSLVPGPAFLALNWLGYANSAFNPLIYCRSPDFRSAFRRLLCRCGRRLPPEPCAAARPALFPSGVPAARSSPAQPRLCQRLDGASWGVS

Row | Structure (SMILES) | EC50 [1, 5] [nM] | EC50 [1, 6] [nM] | EC50 [2, 7] [nM] | EC50 [3] [nM] | EC50 [4, 8] [nM] | EC50 [4, 9] [nM] | EC50 ([1]; Average pEC50 [Receptor subtype: B1-AR, Cell type: CHO-K1 (HitHunter)], CHO-K1 (HitHunter)) [nM] | EC50 [2] [nM] | EC50 ([4]; Average pEC50 [Receptor subtype: B2-AR, Cell type: CHO-K1 (HitHunter)], CHO-K1 (HitHunter)) [nM] | Average pEC50 [Receptor subtype: B1-AR; Cell type: CHO-K1 (HitHunter)] ([1]; CHO-K1 (HitHunter))
1 | CC(C)NC[C@H](O)c1cccc(C(F)(F)F)n1 [Compound 03-35] | < 10 | < 10 | 10 to 100 | > 1000 | 10 to 100 | 10 to 100 | – | – | – | –
2 | CC(C)(C)NC[C@H](O)c1cc(F)cnc1C1=CCCC1 [Compound 03-89] | > 1000 | – | > 1000 | – | 100 to 1000 | – | – | – | – | –
3 | C=CCc1ncccc1[C@@H](O)CNC(C)(C)C [Compound 03-243] | > 1000 | – | 100 to 1000 | – | 10 to 100 | – | – | – | – | –
4 | Cn1cc(-c2cccc([C@@H](O)CNC(C)(C)C)n2)cn1 [Compound 03-215] | 100 to 1000 | – | 10 to 100 | – | < 10 | – | – | – | – | –
5 | Cc1cccc([C@@H](O)CNC(C)(C)C)n1 [Compound 03-6] | 10 to 100 | 10 to 100 | 100 to 1000 | – | 10 to 100 | 10 to 100 | – | – | – | –
6 | COc1ccc(C[C@@H](C)NC[C@H](O)c2cccc(OC(F)(F)F)n2)cc1 [Compound 03-257] | 10 to 100 | – | < 10 | – | < 10 | – | – | – | – | –
7 | CC(C)(CO)NC[C@H](O)c1cccc(C#N)n1 [Compound 03-104] | 100 to 1000 | – | 100 to 1000 | – | 100 to 1000 | – | – | – | – | –
8 | COc1ccc(C[C@@H](C)NC[C@H](O)c2cccnc2C)cc1 [Compound 03-66] | 10 to 100 | – | 100 to 1000 | – | < 10 | – | – | – | – | –
9 | CC(C)(C)NC[C@H](O)c1cccc(NC2CCC2)n1 [Compound 03-190] | 10 to 100 | – | < 10 | – | < 10 | – | – | – | – | –
10 | CC(C)(C)NC[C@H](O)c1cccc(C2CCOCC2)n1 [Compound 03-121] | 100 to 1000 | 10 to 100 | < 10 | – | < 10 | < 10 | – | – | – | –
11 | CC(C)Nc1cccc([C@@H](O)CNC(C)(C)C)n1 [Compound 03-192] | 10 to 100 | – | 10 to 100 | – | < 10 | – | – | – | – | –
12 | CC(C)(C)NC[C@H](O)c1cccc(NC2CCCC2)n1 [Compound 03-191] | 10 to 100 | – | < 10 | – | < 10 | – | – | – | – | –
13 | CC(C)(C)NC[C@H](O)c1cc(F)cnc1C1CCCC1 [Compound 03-80] | > 1000 | – | 100 to 1000 | – | 10 to 100 | – | – | – | – | –
14 | CC(C)(C)NC[C@H](O)c1cccc(-n2nccn2)n1 [Compound 03-101] | > 1000 | – | 100 to 1000 | – | 10 to 100 | – | – | – | – | –
15 | CC(C)(C)NCC(O)c1cc(C#N)cc(C(F)(F)F)n1 (centres unmarked) [Compound 03-181] | > 1000 | > 1000 | 100 to 1000 | – | 100 to 1000 | 100 to 1000 | – | – | – | –
16 | CNc1cccc([C@H](O)CNC(C)(C)C)n1 [Compound 03-142] | > 1000 | > 1000 | > 1000 | – | 100 to 1000 | 100 to 1000 | – | – | – | –
17 | CC(C)(C)NC[C@H](O)c1cccc(-n2ccnn2)n1 [Compound 03-102] | 100 to 1000 | – | 10 to 100 | – | 10 to 100 | – | – | – | – | –

Row | Structure (SMILES) | EC50 [1, 5] [nM] | EC50 [1, 6] [nM] | EC50 [2, 7] [nM] | EC50 [3] [nM] | EC50 [4, 8] [nM] | EC50 [4, 9] [nM] | EC50 ([1]; Average pEC50 [Receptor subtype: B1-AR, Cell type: CHO-K1 (HitHunter)], CHO-K1 (HitHunter)) [nM] | EC50 [2] [nM] | EC50 ([4]; Average pEC50 [Receptor subtype: B2-AR, Cell type: CHO-K1 (HitHunter)], CHO-K1 (HitHunter)) [nM] | Average pEC50 [Receptor subtype: B1-AR; Cell type: CHO-K1 (HitHunter)] ([1]; CHO-K1 (HitHunter))
18 | CN(C)c1cccc([C@@H](O)CNC(C)(C)C)n1 [Compound 03-153] | 10 to 100 | 10 to 100 | 10 to 100 | – | < 10 | < 10 | – | – | – | –
19 | Cc1ccc([C@@H](O)CNC(C)(C)C)cn1 [Compound 03-248] | 10 to 100 | – | 10 to 100 | – | 10 to 100 | – | – | – | – | –
20 | CC(C)(C)NC[C@H](O)c1cccc(NC2CC(F)C2)n1 (some centres unmarked) [Compound 03-272] | < 10 | – | < 10 | – | < 10 | – | – | – | – | –
21 | COc1ccc(C[C@@H](C)NC[C@H](O)c2ccc(OC)nc2C)cc1 [Compound 03-253] | – | – | – | – | – | – | > 1000 | 100 to 1000 | 10 to 100 | –
22 | CC(C)(C)NC[C@H](O)c1cccc(Oc2ccccc2)n1 [Compound 03-195] | 100 to 1000 | – | 10 to 100 | – | 10 to 100 | – | – | – | – | –
23 | CC(C)(C)NC[C@H](O)c1cccc(C2=CCCC2)n1 [Compound 03-197] | 10 to 100 | – | < 10 | – | < 10 | – | – | – | – | –
24 | CC(C)(C)NC[C@@H](O)c1cccc(Cl)n1 [Compound 03-230] | 10 to 100 | – | 100 to 1000 | – | 10 to 100 | – | – | – | – | –
25 | COc1ccc(C[C@@H](C)NC[C@H](O)c2ccc(C)nc2)cc1 [Compound 03-249] | < 10 | – | < 10 | – | < 10 | – | – | – | – | –
26 | C#Cc1cccc([C@H](O)CNC(C)(C)C)n1 [Compound 03-238] | 100 to 1000 | – | 100 to 1000 | – | 10 to 100 | – | – | – | – | –
27 | CC(C)(C)NC[C@@H](O)c1cccc(C2CCC2)n1 [Compound 03-162] | – | > 1000 | 100 to 1000 | – | 10 to 100 | 10 to 100 | – | – | – | D (D < 6)
28 | CC(C)(C)NC[C@H](O)c1cccnc1OC1CC1 [Compound 03-71] | 100 to 1000 | – | 10 to 100 | – | 10 to 100 | – | – | – | – | –
29 | Cc1ncc(Cl)cc1[C@@H](O)CNC(C)(C)C [Compound 03-267] | 100 to 1000 | – | 100 to 1000 | – | 10 to 100 | – | – | – | – | –
30 | CC(C)(C)NC[C@H](O)c1cccc(C(C)(C)C)n1 [Compound 03-209] | < 10 | – | < 10 | – | < 10 | – | – | – | – | –
31 | CC(C)(C)NC[C@H](O)c1cccnc1OC1CCC1 [Compound 03-72] | 10 to 100 | – | 10 to 100 | – | < 10 | – | – | – | – | –
32 | CC(C)(C)NC[C@H](O)c1cccc(-c2ccc[nH]2)n1 [Compound 03-95] | < 10 | – | < 10 | – | < 10 | – | – | – | – | –
33 | CC(C)(C)NC[C@H](O)c1cccc(C2CCCC2)n1 [Compound 03-237] | 10 to 100 | – | < 10 | – | < 10 | – | – | – | – | –
34 | CC(C)(C)NC[C@H](O)c1cccc(-n2cccc2)n1 [Compound 03-123] | – | < 10 | < 10 | – | < 10 | < 10 | – | – | – | A (A > 8)
